According to PubChem BioAssay (NCI):
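Dose response: 5 concentrations. Exposure: 48 h. Format: 96-well plates. Endpoint: linear interpolation; highest concentration if not reached. GI50 marks 50% less growth. TGI: total growth inhibition.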

Assays:
Test in all cases: growth of human tumour cells (NCI), 48 h
MDA-MB-468 breast = test system: MDA-MB-468 breast
A498 renal = test system: A498 renal
SK-MEL-28 melanoma = test system: SK-MEL-28 melanoma
SNB-19 CNS = test system: SNB-19 CNS
NCI-H23 lung = test system: NCI-H23 lung
EKVX NSCLC = test system: EKVX NSCLC
UACC-62 melanoma = test system: UACC-62 melanoma
M14 melanoma = test system: M14 melanoma
OVCAR-5 ovarian = test system: OVCAR-5 ovarian
U251 CNS = test system: U251 CNS
T-47D breast = test system: T-47D breast
KM12 colon = test system: KM12 colon
HCT-116 colon = test system: HCT-116 colon
CAKI-1 renal = test system: CAKI-1 renal
HOP-92 NSCLC = test system: HOP-92 NSCLC
HS 578T breast = test system: HS 578T breast
OVCAR-3 ovarian = test system: OVCAR-3 ovarian
TK-10 renal = test system: TK-10 renal
NCI/ADR-RES ovarian = test system: NCI/ADR-RES ovarian
NCI-H522 lung = test system: NCI-H522 lung
K-562 leukemia = test system: K-562 leukemia
SF-539 CNS = test system: SF-539 CNS
CCRF-CEM leukemia = test system: CCRF-CEM leukemia
A549 NSCLC = test system: A549 NSCLC
786-0 renal = test system: 786-0 renal
SN12C renal = test system: SN12C renal
ACHN renal = test system: ACHN renal

## C[C@H]1[C@@H](CC(=O)N[C@@H](Cc2coc3ccccc23)B(O)O)O[C@@H]2OC3(C)CC[C@H]4[C@H](C)CC[C@@H]1[C@@]24OO3
MDA-MB-468 breast
  GI50: 917 nM
  TGI: 2570 nM
A498 renal
  GI50: 2280 nM
  TGI: 9800 nM
SK-MEL-28 melanoma
  GI50: 1200 nM
  TGI: 3630 nM
SNB-19 CNS
  GI50: 3430 nM
  TGI: > 71000 nM
NCI-H23 lung
  GI50: 1620 nM
  TGI: 7440 nM
EKVX NSCLC
  GI50: 3140 nM
  TGI: 22200 nM
UACC-62 melanoma
  GI50: 1060 nM
  TGI: 2230 nM
M14 melanoma
  GI50: 1330 nM
  TGI: 3860 nM
OVCAR-5 ovarian
  GI50: 1650 nM
  TGI: 7120 nM
U251 CNS
  GI50: 2140 nM
  TGI: 10500 nM
T-47D breast
  GI50: 749 nM
  TGI: 3030 nM
KM12 colon
  GI50: 1980 nM
  TGI: 6320 nM
HCT-116 colon
  GI50: 783 nM
  TGI: 2290 nM
CAKI-1 renal
  GI50: 3630 nM
  TGI: 21900 nM
HOP-92 NSCLC
  GI50: 1340 nM
  TGI: 4090 nM
HS 578T breast
  GI50: 1900 nM
  TGI: 12000 nM
OVCAR-3 ovarian
  GI50: 1260 nM
  TGI: 5180 nM
TK-10 renal
  GI50: 1640 nM
  TGI: > 71000 nM
NCI/ADR-RES ovarian
  GI50: 8060 nM
  TGI: 37200 nM
NCI-H522 lung
  GI50: 493 nM
  TGI: 1810 nM
K-562 leukemia
  GI50: 1140 nM
  TGI: 13800 nM
SF-539 CNS
  GI50: 1050 nM
  TGI: 2470 nM
CCRF-CEM leukemia
  GI50: 322 nM
  TGI: 5380 nM
A549 NSCLC
  GI50: 2460 nM
  TGI: > 71000 nM
786-0 renal
  GI50: 2840 nM
  TGI: 15100 nM
SN12C renal
  GI50: 2180 nM
  TGI: 10600 nM
ACHN renal
  GI50: 2010 nM
  TGI: > 71000 nM
